Here are results for 9 molecules from EP4631959A2, “NOVEL MINIGASTRIN-DERIVED CHOLECYSTOKININ 2 RECEPTOR BINDING MOLECULES FOR IMAGING AND TARGETED RADIOTHERAPY” (priority 2022, dated 2024).

The structures appear in SMILES notation. Where two headings read alike, the source gives them in different places. Starred links: 1 amine or outer side, 2 acyl side, 3 side chain; linkers in the order of their positions; H or OH if unused. Non-standard residues stand in square brackets, D forms with d. Residues, ends and D or L forms follow the SMILES beside them. *: point of attachment. DOTAGA = O=C(O)CN1CCN(CC(=O)O)CCN(C(CCC(=O)*)C(=O)O)CCN(CC(=O)O)CC1; X2 = O=C(O)CN1CCN(CC(=O)O)CCN([C@H](CCC(=O)*)C(=O)O)CCN(CC(=O)O)CC1; Benzoyl(4-SiFtBu2) = CC(C)(C)[Si](F)(c1ccc(C(=O)*)cc1)C(C)(C)C; d(γGlu) = O=C(O)[C@@H](CCC(=O)[*:2])N[*:1]; Nle = CCCC[C@H](N)C(=O)O; dDap = NC[C@@H](N)C(=O)O

One series concerns the target T1, CCK-2R (Rattus norvegicus, UniProt P30553).
T1 construct: The CCK-2R expressing rat pancreatic tumor cells AR4-2J; host or cells: AR4-2J rat pancreatic tumor cells
T1 sequence (P30553 1-452): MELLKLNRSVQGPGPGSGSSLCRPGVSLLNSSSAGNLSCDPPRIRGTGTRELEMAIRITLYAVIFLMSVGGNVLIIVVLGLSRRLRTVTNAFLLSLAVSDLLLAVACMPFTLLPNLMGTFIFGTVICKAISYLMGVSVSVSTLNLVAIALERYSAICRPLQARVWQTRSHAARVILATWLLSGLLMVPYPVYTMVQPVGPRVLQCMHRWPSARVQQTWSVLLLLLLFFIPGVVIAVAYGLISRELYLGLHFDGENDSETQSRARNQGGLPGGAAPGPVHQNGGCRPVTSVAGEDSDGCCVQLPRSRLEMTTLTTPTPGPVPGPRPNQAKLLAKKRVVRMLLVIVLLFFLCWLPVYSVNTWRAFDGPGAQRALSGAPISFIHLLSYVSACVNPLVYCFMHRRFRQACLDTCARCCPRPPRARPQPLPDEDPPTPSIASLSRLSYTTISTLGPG
Description: Determination of IC50: CCK-2R affinity on AR4-2J cells, competition with [^177Lu]Lu-DOTA-PP-F11N. The format is binding. Put shortly:
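Competitive displacement of 0.3 pmol/well [177Lu]Lu-DOTA-PP-F11N by compounds (10^-10 to 10^-4 M) on AR4-2J cells in BSA-supplemented medium, 3 h at 37 °C. Free label was collected from medium plus PBS rinse, and cell-bound label was recovered with 1 M NaOH, both measured by γ-counter. Each IC50 was determined twice, in triplicate.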

Series [1] in a line: n-Octanol-PBS distribution coefficient (logD7.4). The format is physicochemical. To be noted: pH = 7.4, ^177Lu-labeled. The method, then:
Approximately 1 MBq of the labeled tracer was dissolved in 1 mL of a 1/1 mixture (v/v) of phosphate buffered saline (PBS, pH = 7.4) and n-octanol in an Eppendorf tube (1.5 mL). After vigorous mixing of the suspension for 3 min at rt, the vial was centrifuged at 9,000 rpm for 5 min (Biofuge 15, Heraeus Sepatech, Osterode, Germany) and 200 µL aliquots of both layers were measured in a γ-counter. The experiment was repeated at least five times.

[2] abbreviates: read-out: IC50 [nM] (n = 3), ^natLu-labeled; AR4-2J cells; ^natLu-labeled.
The mark [3] stands for this setting: AR4-2J cells; ^natLu-labeled; read-out: IC50 [nM] (n = 3), ^natLu-labeled.

Regarding `CCCC[C@H](NC(=O)[C@H](Cc1c[nH]c2ccccc12)NC(=O)CNC(=O)[C@H](Cc1ccc(O)cc1)NC(=O)[C@H](C)NC(=O)[C@@H](CCC(=O)O)NC(=O)[C@@H](CCC(=O)O)NC(=O)[C@@H](CCC(=O)O)NC(=O)[C@@H](CCC(=O)O)NC(=O)[C@@H](CCC(=O)O)NC(=O)[C@@H](CCC(=O)O)NC(=O)[C@@H](CNC(=O)c1ccc([Si](F)(C(C)(C)C)C(C)(C)C)cc1)NC(=O)CCC(C(=O)O)N1CCN(CC(=O)O)CCN(CC(=O)O)CCN(CC(=O)O)CC1)C(=O)N[C@@H](CC(=O)O)C(=O)N[C@@H](Cc1ccccc1)C(N)=O` (stereo partly drawn) [DOTAGA-MG-SiFA-11, DOTAGA-dap(SiFA)-F11N] ({DOTAGA}-[dDap](Benzoyl(4-SiFtBu2))[dE][dE][dE][dE][dE][dE]AYGW[Nle]DF-NH2), the IC50 (commonly the concentration at which inhibition is half-maximal) at CCK-2R (setting [2]) was 75.7 ± 10.7 nM. In series [1], the “logD7.4 (n ≥ 5), ^177Lu-labeled” value is −2.63 ± 0.08.
For the molecule `CCCC[C@H](NC(=O)[C@H](Cc1c[nH]c2ccccc12)NC(=O)CNC(=O)[C@H](Cc1ccc(O)cc1)NC(=O)[C@H](C)NC(=O)[C@@H](CNC(=O)c1ccc([Si](F)(C(C)(C)C)C(C)(C)C)cc1)NC(=O)CC[C@@H](NC(=O)CC[C@@H](NC(=O)CC[C@@H](NC(=O)CC[C@@H](NC(=O)CC[C@@H](NC(=O)CC[C@@H](NC(=O)CC[C@H](C(=O)O)N1CCN(CC(=O)O)CCN(CC(=O)O)CCN(CC(=O)O)CC1)C(=O)O)C(=O)O)C(=O)O)C(=O)O)C(=O)O)C(=O)O)C(=O)N[C@@H](CC(=O)O)C(=O)N[C@@H](Cc1ccccc1)C(N)=O` [DOTAGA-MG-SiFA-13, DOTAGA-γ-glu-[dap(SiFA)^6]γ-F11N] ({X2-d(γGlu)-d(γGlu)-d(γGlu)-d(γGlu)-d(γGlu)-d(γGlu)}-[dDap](Benzoyl(4-SiFtBu2))AYGW[Nle]DF-NH2), the concentration for half-maximal inhibition (IC50) on CCK-2R (setting [3]) was determined as 863 ± 147 nM. The “logD7.4 (n ≥ 5), ^177Lu-labeled” value in series [1] is −2.15 ± 0.08.
Consider `CCCC[C@H](NC(=O)[C@H](Cc1c[nH]c2ccccc12)NC(=O)CNC(=O)[C@H](Cc1ccc(O)cc1)NC(=O)[C@H](C)NC(=O)CC[C@@H](NC(=O)[C@@H](CNC(=O)c1ccc([Si](F)(C(C)(C)C)C(C)(C)C)cc1)NC(=O)CC[C@@H](NC(=O)CC[C@@H](NC(=O)CC[C@@H](NC(=O)CC[C@@H](NC(=O)CC[C@@H](NC(=O)CC[C@H](C(=O)O)N1CCN(CC(=O)O)CCN(CC(=O)O)CCN(CC(=O)O)CC1)C(=O)O)C(=O)O)C(=O)O)C(=O)O)C(=O)O)C(=O)O)C(=O)N[C@@H](CC(=O)O)C(=O)N[C@@H](Cc1ccccc1)C(N)=O` [DOTAGA-MG-SiFA-14, DOTAGA-γ-glu-[dap(SiFA)^5]γ-F11N] ({X2-d(γGlu)-d(γGlu)-d(γGlu)-d(γGlu)-d(γGlu)}-[dDap](Benzoyl(4-SiFtBu2))[d(γGlu)]AYGW[Nle]DF-NH2), for which the half-inhibitory concentration (IC50) on CCK-2R (setting [3]) came to 111 ± 13 nM. Besides, the “logD7.4 (n ≥ 5), ^177Lu-labeled” value in series [1] is −2.23 ± 0.07.
For `CCCC[C@H](NC(=O)[C@H](Cc1c[nH]c2ccccc12)NC(=O)CNC(=O)[C@H](Cc1ccc(O)cc1)NC(=O)[C@H](C)NC(=O)CC[C@@H](NC(=O)CC[C@@H](NC(=O)[C@@H](CNC(=O)c1ccc([Si](F)(C(C)(C)C)C(C)(C)C)cc1)NC(=O)CC[C@@H](NC(=O)CC[C@@H](NC(=O)CC[C@@H](NC(=O)CC[C@@H](NC(=O)CC[C@H](C(=O)O)N1CCN(CC(=O)O)CCN(CC(=O)O)CCN(CC(=O)O)CC1)C(=O)O)C(=O)O)C(=O)O)C(=O)O)C(=O)O)C(=O)O)C(=O)N[C@@H](CC(=O)O)C(=O)N[C@@H](Cc1ccccc1)C(N)=O` [DOTAGA-MG-SiFA-15, DOTAGA-γ-glu-[dap(SiFA)^4]γ-F11N] ({X2-d(γGlu)-d(γGlu)-d(γGlu)-d(γGlu)}-[dDap](Benzoyl(4-SiFtBu2))[d(γGlu)][d(γGlu)]AYGW[Nle]DF-NH2), in that order: 89.7 ± 14.5 nM and −2.34 ± 0.05.
With `CCCC[C@H](NC(=O)[C@H](Cc1c[nH]c2ccccc12)NC(=O)CNC(=O)[C@H](Cc1ccc(O)cc1)NC(=O)[C@H](C)NC(=O)CC[C@@H](NC(=O)CC[C@@H](NC(=O)CC[C@@H](NC(=O)[C@@H](CNC(=O)c1ccc([Si](F)(C(C)(C)C)C(C)(C)C)cc1)NC(=O)CC[C@@H](NC(=O)CC[C@@H](NC(=O)CC[C@@H](NC(=O)CC[C@H](C(=O)O)N1CCN(CC(=O)O)CCN(CC(=O)O)CCN(CC(=O)O)CC1)C(=O)O)C(=O)O)C(=O)O)C(=O)O)C(=O)O)C(=O)O)C(=O)N[C@@H](CC(=O)O)C(=O)N[C@@H](Cc1ccccc1)C(N)=O` [DOTAGA-MG-SiFA-16, DOTAGA-γ-glu-[dap(SiFA)^3]γ-F11N] ({X2-d(γGlu)-d(γGlu)-d(γGlu)}-[dDap](Benzoyl(4-SiFtBu2))[d(γGlu)][d(γGlu)][d(γGlu)]AYGW[Nle]DF-NH2), the concentration for half-maximal inhibition (IC50) on CCK-2R (setting [3]) turned out to be 68.5 ± 11.4 nM. Moreover, the “logD7.4 (n ≥ 5), ^177Lu-labeled” value in series [1] is on record as −2.57 ± 0.06.
Take `CCCC[C@H](NC(=O)[C@H](Cc1c[nH]c2ccccc12)NC(=O)CNC(=O)[C@H](Cc1ccc(O)cc1)NC(=O)[C@H](C)NC(=O)CC[C@@H](NC(=O)CC[C@@H](NC(=O)CC[C@@H](NC(=O)CC[C@@H](NC(=O)[C@@H](CNC(=O)c1ccc([Si](F)(C(C)(C)C)C(C)(C)C)cc1)NC(=O)CC[C@@H](NC(=O)CC[C@@H](NC(=O)CCC(C(=O)O)N1CCN(CC(=O)O)CCN(CC(=O)O)CCN(CC(=O)O)CC1)C(=O)O)C(=O)O)C(=O)O)C(=O)O)C(=O)O)C(=O)O)C(=O)N[C@@H](CC(=O)O)C(=O)N[C@@H](Cc1ccccc1)C(N)=O` (stereo partly drawn) [DOTAGA-MG-SiFA-17, DOTAGA-γ-glu-[dap(SiFA)^2]γ-F11N] ({DOTAGA-d(γGlu)-d(γGlu)}-[dDap](Benzoyl(4-SiFtBu2))[d(γGlu)][d(γGlu)][d(γGlu)][d(γGlu)]AYGW[Nle]DF-NH2): the concentration for half-maximal inhibition (IC50) at CCK-2R (setting [2]) is 51.3 ± 9.3 nM. In series [1], the “logD7.4 (n ≥ 5), ^177Lu-labeled” value is −2.26 ± 0.05.
As to `CCCC[C@H](NC(=O)[C@H](Cc1c[nH]c2ccccc12)NC(=O)CNC(=O)[C@H](Cc1ccc(O)cc1)NC(=O)[C@H](C)NC(=O)CC[C@@H](NC(=O)CC[C@@H](NC(=O)CC[C@@H](NC(=O)CC[C@@H](NC(=O)CC[C@@H](NC(=O)[C@@H](CNC(=O)c1ccc([Si](F)(C(C)(C)C)C(C)(C)C)cc1)NC(=O)CC[C@@H](NC(=O)CCC(C(=O)O)N1CCN(CC(=O)O)CCN(CC(=O)O)CCN(CC(=O)O)CC1)C(=O)O)C(=O)O)C(=O)O)C(=O)O)C(=O)O)C(=O)O)C(=O)N[C@@H](CC(=O)O)C(=O)N[C@@H](Cc1ccccc1)C(N)=O` (stereo partly drawn) [DOTAGA-MG-SiFA-18, DOTAGA-γ-glu-[dap(SiFA)^1]γ-F11N] ({DOTAGA-d(γGlu)}-[dDap](Benzoyl(4-SiFtBu2))[d(γGlu)][d(γGlu)][d(γGlu)][d(γGlu)][d(γGlu)]AYGW[Nle]DF-NH2), the IC50 at CCK-2R (setting [2]) was 33 ± 11.1 nM. Also, the “logD7.4 (n ≥ 5), ^177Lu-labeled” value in series [1] is −2.50 ± 0.02.
The like results for `CCCC[C@H](NC(=O)[C@H](Cc1c[nH]c2ccccc12)NC(=O)CNC(=O)[C@H](Cc1ccc(O)cc1)NC(=O)[C@H](C)NC(=O)[C@@H](CCC(=O)O)NC(=O)[C@@H](CCC(=O)O)NC(=O)[C@@H](CCC(=O)O)NC(=O)[C@@H](CCC(=O)O)NC(=O)[C@@H](CCC(=O)O)NC(=O)[C@@H](CCC(=O)O)NC(=O)[C@@H](CCC(=O)O)NC(=O)[C@@H](CNC(=O)c1ccc([Si](F)(C(C)(C)C)C(C)(C)C)cc1)NC(=O)CCC(C(=O)O)N1CCN(CC(=O)O)CCN(CC(=O)O)CCN(CC(=O)O)CC1)C(=O)N[C@@H](CC(=O)O)C(=O)N[C@@H](Cc1ccccc1)C(N)=O` (stereo partly drawn) [DOTAGA-MG-SiFA-20, DOTAGA-dap(SiFA)-glu-F11N] ({DOTAGA}-[dDap](Benzoyl(4-SiFtBu2))[dE][dE][dE][dE][dE][dE][dE]AYGW[Nle]DF-NH2) were, in that order, 58 ± 11 nM and −2.19 ± 0.08.
For the molecule `CCCC[C@H](NC(=O)[C@H](Cc1c[nH]c2ccccc12)NC(=O)CNC(=O)[C@H](Cc1ccc(O)cc1)NC(=O)[C@H](C)NC(=O)[C@@H](CCC(=O)O)NC(=O)[C@@H](CCC(=O)O)NC(=O)[C@@H](CCC(=O)O)NC(=O)[C@@H](CCC(=O)O)NC(=O)[C@@H](CCC(=O)O)NC(=O)[C@@H](CCC(=O)O)NC(=O)[C@@H](CCC(=O)O)NC(=O)[C@@H](CCC(=O)O)NC(=O)[C@@H](CNC(=O)c1ccc([Si](F)(C(C)(C)C)C(C)(C)C)cc1)NC(=O)CCC(C(=O)O)N1CCN(CC(=O)O)CCN(CC(=O)O)CCN(CC(=O)O)CC1)C(=O)N[C@@H](CC(=O)O)C(=O)N[C@@H](Cc1ccccc1)C(N)=O` (stereo partly drawn) [DOTAGA-MG-SiFA-21, DOTAGA-dap(SiFA)-(glu)2-F11N] ({DOTAGA}-[dDap](Benzoyl(4-SiFtBu2))[dE][dE][dE][dE][dE][dE][dE][dE]AYGW[Nle]DF-NH2), the 50% inhibitory concentration (IC50) on CCK-2R (setting [2]) stood at 55.3 ± 7.8 nM. Also, in series [1], the “logD7.4 (n ≥ 5), ^177Lu-labeled” value is −2.84 ± 0.04.
